Results as given in patent publication US11840686B2, “Modulation of prekallikrein (PKK) expression” (Ionis Pharmaceuticals, Inc., priority 2013, dated 2023).
Strand notation (5' to 3'): a small letter for the sugar, then the base; units joined by * are phosphorothioate-linked, units joined directly phosphodiester-linked; [ ] holds rarer units or linkages, { } end groups; capitals alone tell only the bases. e = 2'-O-(2-methoxyethyl) (MOE); [5mC] = 5-methylcytosine; d = 2'-deoxy (DNA)

Tests used:
human PKK mRNA [1] = assay: Antisense inhibition of human PKK mRNA in HepaRG cells, 3,000 nM (Example 1); assay type: cell-based; settings: relative to untreated control cells
Outline: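 Values give percent PKK mRNA reduction relative to untreated controls, normalised to RIBOGREEN total RNA. mRNA was quantified by real-time PCR (RTS3454) about 24 h after electroporation. Each 20-mer MOE gapmer was delivered at 3,000 nM into 20,000 HepaRG cells per well.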

human PKK mRNA [2] = assay: Dose-dependent antisense inhibition of human PKK in HepaRG cells, 0.12-10.00 uM (Example 4); assay type: cell-based; settings: electroporation, ~16 h
Experimental: Cells were plated at a density of 20,000 cells per well and transfected using electroporation with 0.12 μM, 0.37 μM, 1.11 μM, 3.33 μM, and 10.00 μM concentrations of antisense oligonucleotide. After a treatment period of approximately 16 hours, RNA was isolated from the cells and PKK mRNA levels were measured by quantitative real-time PCR. Human PKK primer probe set RTS3454 was used to measure mRNA levels. PKK mRNA levels were adjusted according to total RNA content, as measured by RIBOGREEN®. The antisense oligonucleotides were tested in a series of experiments that had similar culture conditions. Results are presented as percent inhibition of PKK, relative to untreated control cells.
The half maximal inhibitory concentration (IC50) of each oligonucleotide is also presented.

[3] = Table 1, PKK mRNA, HepaRG cells, 3,000 nM, electroporation, ~24 h
[4] = Table 4, HepaRG cells, electroporation with 3,000 nM antisense oligonucleotide, approx. 24 hours, PKK mRNA by RT-PCR (RTS3454)

Substance	% inhibition (human PKK mRNA [1]; [3]) [%]	percent inhibition of PKK at 0.12 μM (human PKK mRNA [2]; Table 32, 0.12 μM) [%]	percent inhibition of PKK at 0.37 μM (human PKK mRNA [2]; Table 32, 0.37 μM) [%]	percent inhibition of PKK at 1.11 μM (human PKK mRNA [2]; Table 32, 1.11 μM) [%]	percent inhibition of PKK at 3.33 μM (human PKK mRNA [2]; Table 32, 3.33 μM) [%]	percent inhibition of PKK at 10.00 μM (human PKK mRNA [2]; Table 32, 10.00 μM) [%]	IC50 (human PKK mRNA [2]; Table 32, PKK mRNA) [nM]	% inhibition (human PKK mRNA [1]; Table 2, PKK mRNA, HepaRG cells, 3,000 nM, electroporation, ~24 h) [%]	% inhibition (human PKK mRNA [1]; Table 3, HepaRG cells, electroporation with 3,000 nM antisense oligonucleotide, approx. 24 hours, PKK mRNA by RT-PCR (RTS3454)) [%]	percent inhibition of PKK at 0.12 μM (human PKK mRNA [2]; Table 33, 0.12 μM) [%]	percent inhibition of PKK at 0.37 μM (human PKK mRNA [2]; Table 33, 0.37 μM) [%]	percent inhibition of PKK at 1.11 μM (human PKK mRNA [2]; Table 33, 1.11 μM) [%]	percent inhibition of PKK at 3.33 μM (human PKK mRNA [2]; Table 33, 3.33 μM) [%]	percent inhibition of PKK at 10.00 μM (human PKK mRNA [2]; Table 33, 10.00 μM) [%]	IC50 (human PKK mRNA [2]; Table 33, PKK mRNA) [nM]	% inhibition (human PKK mRNA [1]; [4]) [%]
530992 (eG*eT*e[5mC]*eA*e[5mC]*dA*dT*dT*d[5mC]*dA*dA*dT*dT*d[5mC]*dT*eT*e[5mC]*eT*e[5mC]*e[5mC]; antisense) [compound 530992]	70	0	50	63	83	80	700	–	–	–	–	–	–	–	–	–
531022 (eG*eT*eA*eA*eT*dG*dT*d[5mC]*dT*dG*dA*d[5mC]*dA*dG*dA*eT*eT*eT*eA*eA; antisense) [compound 531022]	–	0	0	32	62	77	2200	74	–	–	–	–	–	–	–	–
530971 (antisense eG*eG*eA*eA*e[5mC]*dT*dT*dG*dG*dT*dG*dT*dG*d[5mC]*d[5mC]*eA*e[5mC]*eT*eT*eT) [compound 530971]	85	12	40	52	66	70	1300	–	–	–	–	–	–	–	–	–
531123 (antisense eT*e[5mC]*e[5mC]*e[5mC]*eA*dG*d[5mC]*dT*d[5mC]*d[5mC]*dA*dG*dT*d[5mC]*dA*e[5mC]*e[5mC]*eA*e[5mC]*e[5mC]) [compound 531123]	–	–	–	–	–	–	–	–	74	14	43	51	71	64	900	–
531235 (eT*e[5mC]*eA*e[5mC]*eT*dG*dT*dA*d[5mC]*dT*dA*dG*dT*dT*dT*e[5mC]*e[5mC]*eT*eA*eT; antisense) [compound 531235]	–	–	–	–	–	–	–	–	–	27	55	62	84	95	400	86
531198 (eG*eG*eG*eA*eT*dT*dT*dT*dG*d[5mC]*dT*dG*dA*dA*dG*e[5mC]*eT*eG*eG*eT; antisense) [compound 531198]	–	–	–	–	–	–	–	–	–	0	35	62	76	60	800	73
530959 (antisense eT*e[5mC]*eA*eA*e[5mC]*dA*d[5mC]*dT*dG*d[5mC]*dT*dA*dA*d[5mC]*d[5mC]*eT*eT*eA*eG*eA) [compound 530959]	60	12	27	53	80	94	900	–	–	–	–	–	–	–	–	–
